Holding throughout (type): in vivo, mice
Assay [1] has as its system explanted fat grafts (Tie2/LacZ donor, wild type FVB recipient). In words: Quantitative PCR of 2-day old explanted fat grafts after sildenafil pretreatment of donor tissue. Particulars: qPCR. The protocol: (§1) To examine the effect of PDE5 inhibitor pretreatment of donor graft tissue on graft take and survival, transfer of syngeneic fat between Tie2/LacZ mice (donor) and wild type FVB mice (recipient) was performed. A schematic representation of the protocol is depicted in FIG. 1A. Since the transgenic mice express the lacZ gene in their blood vessels, donor and recipient vasculature can be independently visualized and assessed based on the presence or absence of lacZ gene expression.
Prior to harvesting the inguinal fat pads from 6-12 week old transgenic FVB Tie2/LacZ mice, the pads were infiltrated with small volumes of PBS (control) and 35 nM sildenafil citrate in PBS and allowed to dwell for 15-20 minutes. The pads were harvested, washed in PBS, and finely minced to simulate conditions of human harvest. The minced fat was centrifuged at 3000 rpm for 3 minutes and the aqueous and oil layers removed leaving the adipose layer for injection. The dorsum of syngeneic wildtype FVB mice was used as the recipient bed for the processed lipoaspirate, as previously described (Sultan et al., “Human Fat Grafting Alleviates Radiation Skin Damage in a Murine Model,” Plast Reconstr Surg 128:363-72 (2011) and Thanik et al., “A Murine Model for Studying Diffusely Injected Human Fat,” Plast Reconstr Surg 124:74-81 (2009), which are hereby incorporated by reference in their entirety). Autologous fat was infiltrated using a blunt tip cannula through a 2-mm caudal midline incision. The infiltration cannula was advanced and withdrawn in a fan like pattern in the dorsal subdermal plane of the mouse, to maintain an even layer over the entire dorsal surface.

In assay [2] the test system is fat grafts. In words: Graft volume maintenance and graft survival analysis after fat transfer. As for the experimental part: as §1
(§2) Prior to harvesting the inguinal fat pads from 6-12 week old transgenic FVB Tie2/LacZ mice, the pads were infiltrated with small volumes of PBS (control) and 35 nM sildenafil citrate in PBS and allowed to dwell for 15-20 minutes. The pads were harvested, washed in PBS, and finely minced to simulate conditions of human harvest. The minced fat was centrifuged at 3000 rpm for 3 minutes and the aqueous and oil layers removed leaving the adipose layer for injection. The dorsum of syngeneic wildtype FVB mice was used as the recipient bed for the processed lipoaspirate, as previously described (Sultan et al., “Human Fat Grafting Alleviates Radiation Skin Damage in a Murine Model,” Plast Reconstr Surg 128:363-72 (2011) and Thanik et al., “A Murine Model for Studying Diffusely Injected Human Fat,” Plast Reconstr Surg 124:74-81 (2009), which are hereby incorporated by reference in their entirety). […]

The test system of assay [3] is fat grafts. In words: Vascular flux (Doppler) in grafted fat tissue after transplantation. As for the experimental part: as §1, §2
Assay [4] deals with fat grafts. The assay is described as follows: Graft weight retention of explanted fat grafts. To be noted: 8 weeks post transplant. The protocol: as §1, §2
Where [5] appears, read: 2-day old explanted grafts, 35 nM sildenafil citrate pretreatment vs PBS/saline control.
The mark [6] stands for this setting: explanted tissue, sildenafil pretreatment vs saline control.

In the case of `CCCc1nn(C)c2c(=O)nc(-c3cc(S(=O)(=O)N4CCN(C)CC4)ccc3OCC)[nH]c12` [sildenafil, 5-{2-Ethoxy-5-[(4-methyl-1-piperazinyl)sulfonyl]phenyl}-1-methyl-3-propyl-1,4-dihydro-7H-pyrazolo[4,3-d]pyrimidin-7-one 2-hydroxy-1,2,3-propanetricarboxylate (1:1)], in assay [1] (setting [5]), the “LacZ expression (donor-derived endothelial cell function/viability)” value was “increased” and the “PECAM-1 expression (donor-derived endothelial cell function/viability)” value was “increased”. Moreover, in assay [1] (setting [6]), the “expression of the inflammatory gene SDF-1α” value is on record as “decreased” and the “expression of the inflammatory gene VCAM” value was “decreased”. For the same compound, the “graft tissue volume after transfer” value in the assay on fat grafts [2] (over 12 weeks after transfer, vs saline treated grafts, which are resorbed quickly) was “maintained virtually all of its volume over time”. Also, the graft survival entry with fat grafts [2] (survival analysis vs saline-treated control grafts and devascularized (trypsin-inactivated) grafts) is listed as “survive significantly longer”. Moreover, the “revascularization within the core of the graft” value in the assay with fat grafts [3] (1 and 2 weeks post grafting, vs control) was “significant improvement in revascularization”. Also, the “restoration of blood flow within the grafted tissues (vascular flux)” value in the assay with fat grafts [3] (first two weeks following transplantation, vs saline control) is listed as “faster restoration of blood flow”. Besides, in the assay with fat grafts [4], the “enhanced graft retention (percent graft weight retention) compared to saline treated grafts” value is reported as > 2 fold.

The record behind these values is patent US9943398B2, “Increasing survival of free tissue grafts and flaps using phosphodiesterase type 5 (PDE5) inhibitors” (New York University, priority 2012, dated 2018).
